Measurements as given in ChEMBL document CHEMBL5050843, “Amide substituted thiazoles as protein secretion inhibitors” (2019).
pIC50: −log10 of the molar value.

What was measured:
Format in all cases: functional, cell-based
[1] = Inhibition of constitutively active VCAMss-Gluc secretion in human Flp-In-T-REx-293 cells measured by Gaussia luciferase reporter gene method
[2] = Inhibition of TNF-alpha-FL-Gluc secretion in doxycyclin-induced human Flp-In-T-REx-293 cells measured by Gaussia luciferase reporter gene method
[3] = Inhibition of PD1ss-Gluc secretion in doxycyclin-induced human Flp-In-T-REx-293 cells measured by Gaussia luciferase reporter gene method
[4] = Inhibition of PR1ss-Gluc secretion in doxycyclin-induced human Flp-In-T-REx-293 cells measured by Gaussia luciferase reporter gene method
[5] = Inhibition of constitutively active PR1ss-Gluc secretion in human Flp-In-T-REx-293 cells measured by Gaussia luciferase reporter gene method

SMILES	pIC50 [1]	pIC50 [2]	pIC50 [3]	pIC50 [4]	pIC50 [5]
CC(C)(C)c1csc(NC(=O)c2ccc(Cl)s2)n1	5.70	5.10			
CCC(C)n1cc(CC(=O)Nc2nc(C(C)(C)C)cs2)c2cc(Cl)ccc21 (stereo not given)			5.36	< 4.60	
CC(C)(C)c1nc(NC(=O)c2cc3c(s2)CCCC3)sc1C#N	< 4.10	< 4.10			
CC(C)(C)Cc1csc(NC(=O)Cc2cn(Cc3ccccc3Cl)c3ccc(Cl)cc23)n1		< 4.60	5.21	< 4.60	
CC(C)(C)c1csc(NC(=O)c2ccc(-c3ccc(Cl)cc3Cl)s2)n1	5.64	5.37			
CC(C)(C)c1csc(NC(=O)Cc2cn(Cc3ccccc3)c3cc(Cl)ncc23)n1		4.63	5.08	4.68	
C[C@@H](c1ccccc1Cl)n1cc(CC(=O)Nc2nc(C(C)(C)C)cs2)c2cc(Cl)ccc21		< 4.60	6.06	< 4.60	
CC(C)(C)c1csc(NC(=O)Cc2cn(CC(=O)Nc3ccccc3O)c3ccc(Cl)cc23)n1		4.75	4.98	4.72	
CC(C)(C)c1csc(NC(=O)Cc2cn(Cc3ccccc3S(C)(=O)=O)c3ccc(Cl)cc23)n1			4.88	< 4.60	
CC(C)n1cc(CC(=O)Nc2nc(C(C)(C)C)cs2)c2cc(Cl)ccc21	6.23		5.36	< 4.60	< 4.60
COc1ccc2c(c1)c(CC(=O)Nc1nc(C(C)(C)C)cs1)cn2Cc1ccccc1			5.47	< 4.60	
CC(C)(C)c1csc(NC(=O)Cc2cn(Cc3nc4ccccc4o3)c3ccc(Cl)cc23)n1		< 4.60	5.01	< 4.60	
CC(C)(C)c1csc(NC(=O)c2csc3c2CCCC3)n1	4.85	4.14			
COc1ccc2cc(C(=O)Nc3nc(C(C)(C)C)cs3)sc2c1	5.74	< 4.10			
CNC(=O)c1ccc2sc(C(=O)Nc3nc(C(C)(C)C)cs3)cc2c1			5.06	5.13	
CC(C)(C)c1csc(NC(=O)c2cn(Cc3ccccc3)c3ccccc23)n1			5.15	< 4.60	
CC(C)(C)c1csc(NC(=O)Cc2cn(-c3ccccn3)c3ccc(Cl)cc23)n1			5.06	< 4.60	
CC(C)(C)c1csc(NC(=O)Cc2cn(-c3cccc(Cl)c3)c3ccc(Cl)cc23)n1			5.38	< 4.60	
CCCc1csc(NC(=O)c2cc3c(s2)CCCC3)n1	5.59	< 4.10			
CC(C)(C)c1csc(NC(=O)Cc2cn(Cc3ncco3)c3ccc(Cl)cc23)n1		< 4.60	4.63	< 4.60	
CC(C)c1csc(NC(=O)c2cc3c(s2)CCCC3)n1	5.92	< 4.10			
CC(C)(C)c1csc(NC(=O)Cc2cn(Cc3ccccc3C(N)=O)c3ccc(Cl)cc23)n1			< 4.60	< 4.60	
CN[C@@H](Cc1cn(Cc2ccc(F)cc2)c2ccccc12)C(=O)Nc1nc(C(C)(C)C)cs1			< 4.60	< 4.60	
CC(C)(C)c1csc(NC(=O)Cc2cn(C3CCCCC3)c3ccc(Cl)cc23)n1		< 4.60	5.47	< 4.60	
CC(C)(C)c1csc(NC(=O)c2cc(Br)c(Br)s2)n1	5.42	4.59			

SMILES	pIC50 [1]	pIC50 [2]	pIC50 [3]	pIC50 [4]	pIC50 [5]
CC(C)(C)c1csc(NC(=O)Cc2cn(Cc3ccon3)c3ccc(Cl)cc23)n1		< 4.60	4.99		
CC1(C)CCc2sc(NC(=O)c3cc4c(s3)CCCC4)nc21	6.40	< 4.10			
CC(C)(C)c1csc(NC(=O)Cc2cn(Cc3ccccc3)c3ccncc23)n1		< 4.60	5.07	< 4.60	
CCC1CCc2sc(C(=O)Nc3nc(C(C)(C)C)cs3)cc2C1 (stereo not given)	5.10	< 4.10			
CC(C)(C)c1csc(NC(=O)Cc2cn(Cc3ccccc3)c3ncccc23)n1		< 4.60	4.91	< 4.60	
CC(C)(C)c1csc(NC(=O)Cc2cn(Cc3ccccc3)c3ccc(Br)cc23)n1			5.21	< 4.60	
CC(C)(C)c1csc(NC(=O)Cc2cn(C3CCCC3)c3ccc(Cl)cc23)n1			5.19	< 4.60	
CC(C)(C)c1csc(NC(=O)Cc2cn(CCc3ccccc3)c3ccc(Cl)cc23)n1			5.38	< 4.60	
CC(=O)N1CCc2sc(C(=O)Nc3nc(C(C)(C)C)cs3)cc2C1	< 4.30	< 4.30			
CC(C)(C)c1csc(NC(=O)c2cc3ccccc3n2Cc2ccccc2)n1			5.08	< 4.60	
CC(C)(C)c1csc(NC(=O)Cc2cn(Cc3ccc(F)cc3Cl)c3ccc(Cl)cc23)n1		< 4.60	5.94	< 4.60	
O=C(Nc1nc(C2CC2)cs1)c1cc2c(s1)CCCC2	4.96	< 4.10			
CC(C)(C)c1csc(NC(=O)c2ccc(-c3ccccc3)s2)n1	5.89	5.35			
Cc1cc(C(=O)Nc2nc(C(C)(C)C)cs2)cn1Cc1ccccc1		< 4.60	5.32	< 4.60	
CC(C)(C)c1csc(NC(=O)c2cc3c(s2)CCC3)n1	6.00	4.74			
CC(C)OC(C)(C)c1csc(NC(=O)Cc2cn(Cc3ccccc3Cl)c3ccc(Cl)cc23)n1		4.83	6.15	< 4.60	
CC(C)(C)c1csc(NC(=O)Cc2cn(-c3ccc(Cl)cc3)c3ccc(Cl)cc23)n1			5.57	< 4.60	
CC(C(=O)Nc1nc(C(C)(C)C)cs1)c1cn(Cc2ccccc2)c2ccc(Cl)cc12 (stereo not given)		< 4.60	5.22	< 4.60	
Cc1cc(Cn2cc(CC(=O)Nc3nc(C(C)(C)C)cs3)c3cc(Cl)ccc32)ccn1		< 4.60	5.21	4.62	
Cc1cnccc1Cn1cc(CC(=O)Nc2nc(C(C)(C)C)cs2)c2cc(Cl)ccc21		4.72	5.57	< 4.60	
COC(C)(C)c1csc(NC(=O)Cc2cn(Cc3ccccc3Cl)c3ccc(Cl)cc23)n1		4.87	5.98	< 4.60	
CC(=O)N(C)[C@@H](Cc1cn(Cc2ccc(F)cc2)c2ccccc12)C(=O)Nc1nc(C(C)(C)C)cs1			< 4.60	< 4.60	
CC(C)(C)c1csc(NC(=O)c2cc3ccc(Br)cc3s2)n1	5.48	< 4.10			
CC(C)(C)c1csc(NC(=O)c2ccc(Br)s2)n1	4.64	< 4.10			
CC(C)(C)c1csc(NC(=O)Cc2cn(Cc3ccc(C(N)=O)cc3)c3ccc(Cl)cc23)n1		< 4.60	5.05	< 4.60	

SMILES	pIC50 [1]	pIC50 [2]	pIC50 [3]	pIC50 [4]	pIC50 [5]
CC(C)(C)c1csc(NC(=O)Cc2cn(-c3ccccc3Cl)c3ccc(Cl)cc23)n1			5.36	< 4.60	
CC(C)(C)OC(=O)N1CCc2sc(C(=O)Nc3nc(C(C)(C)C)cs3)cc2C1	4.70	< 4.30			
Cc1cc(C(=O)Nc2nc(C(C)(C)C)cs2)sc1-c1ccccc1	5.35	4.51			
CC(C)(C)c1csc(NC(=O)Cc2cn(Cc3ccccc3)c3ccc(C(N)=O)cc23)n1			< 4.60	< 4.60	
CC(C)(C)c1csc(NC(=O)Cc2cn(Cc3ccccc3)c3ccc(C#N)cc23)n1			5.22	< 4.60	
CCC(C)(C)c1csc(NC(=O)Cc2cn(Cc3ccccc3Cl)c3ccc(Cl)cc23)n1		< 4.62	6.14	< 4.60	
CC(C)(C)c1nsc(NC(=O)c2cc3c(s2)CCCC3)n1	6.37	5.33			
CC(C)(C)c1csc(NC(=O)Cc2cn(Cc3ncccn3)c3ccc(Cl)cc23)n1		< 4.60	4.63	< 4.60	
CC(C)(C)c1csc(NC(=O)Cc2cn(C3CCc4ccccc43)c3ccc(Cl)cc23)n1 (stereo not given)		< 4.60	5.18	< 4.60	
CC(C)(C)c1csc(NC(=O)Cc2cn(Cc3ccccc3C#N)c3ccc(Cl)cc23)n1			5.44	< 4.60	
CC(c1ccccc1Cl)n1cc(CC(=O)Nc2nc(C(C)(C)C)cs2)c2cc(Cl)ccc21 (stereo not given)		< 4.60	5.81	< 4.60	
CC(C)(C)c1csc(NC(=O)Cc2cn(Cc3cocn3)c3ccc(Cl)cc23)n1		< 4.60	4.66		
CC(C)(C)c1csc(NC(=O)Cc2cn(Cc3ccc(C#N)cc3)c3ccc(Cl)cc23)n1		4.62	5.38	< 4.60	
CC(C)(C)Cc1csc(NC(=O)Cc2csc3ccc(Cl)cc23)n1	2.61		5.16	< 4.60	< 4.60
CC(C)(C)c1csc(NC(=O)c2cc3c([nH]2)CCCC3)n1	5.60	< 4.10			
C[C@H](c1ccccc1Cl)n1cc(CC(=O)Nc2nc(C(C)(C)C)cs2)c2cc(Cl)ccc21		< 4.60	5.38	< 4.60	
COC(=O)c1sc(NC(=O)c2cc3c(s2)CCCC3)nc1C(C)(C)C	5.41	< 4.10			
CC(C)(C)c1csc(NC(=O)c2cc(Br)cs2)n1	4.85	4.14			
CC(C)Cn1cc(CC(=O)Nc2nc(C(C)(C)C)cs2)c2cc(Cl)ccc21			5.27	< 4.60	
CC(c1ccccc1)n1cc(CC(=O)Nc2nc(C(C)(C)C)cs2)c2cc(Cl)ccc21 (stereo not given)	6.66		5.58	< 4.60	< 4.60
CC(C)(C)c1csc(NC(=O)Cc2cn(Cc3c(F)cccc3Cl)c3ccc(Cl)cc23)n1		< 4.60	5.20	< 4.60	
Cc1c(CC(=O)Nc2nc(C(C)(C)C)cs2)c2ccccc2n1Cc1ccccc1Cl		< 4.67	5.72	< 4.60	
CC(C)(C)c1csc(NC(=O)c2cc3c(s2)CCCCC3)n1	6.24	5.37			
CC(C)(C)c1csc(NC(=O)Cc2cn(Cc3ccccc3)c3nc(Cl)ccc23)n1		< 4.60	5.00	< 4.60	
